These results are taken from ChEMBL document CHEMBL5532670, “Discovery of Tetrahydropyrazolopyrazine Derivatives as Potent and Selective MYT1 Inhibitors for the Treatment of Cancer” (J Med Chem, 2024).

Series [1] can be described thus: MRT (0 to t) in CD-1 mouse at 1 mg/kg, iv measured after 24 hrs. Conditions: in vivo. It counts as ADME, organism-based.
Series [2] in a line: MRT (0 to t) in Sprague-Dawley rat at 1 mg/kg, iv measured after 24 hrs. The series is classed as ADME, organism-based. To be noted: in vivo.
The nature of series [3]: Cmax in CD-1 mouse at 10 mg/kg, po measured after 24 hrs. Conditions: in vivo. The series is classed as ADME, organism-based.
A short description of series [4]: AUC (0 to t) in CD-1 mouse at 10 mg/kg, po measured after 24 hrs. Conditions: in vivo. The series is classed as ADME, organism-based.
The nature of series [5]: Tmax in CD-1 mouse at 10 mg/kg, po measured after 24 hrs. The series is classed as ADME, organism-based. Conditions: in vivo.
A short description of series [6]: Oral bioavailability in CD-1 mouse at 10 mg/kg measured after 24 hrs. Conditions: in vivo. The series is classed as ADME, organism-based.
The nature of series [7]: Cmax in Sprague-Dawley rat at 10 mg/kg, po measured after 24 hrs. The series is classed as ADME, organism-based. To be noted: in vivo.
A short description of series [8]: Tmax in Sprague-Dawley rat at 10 mg/kg, po measured after 24 hrs. It counts as ADME, organism-based. To be noted: in vivo.
A short description of series [9]: Oral bioavailability in Sprague-Dawley rat at 10 mg/kg measured after 24 hrs. The series is classed as ADME, organism-based. To be noted: in vivo.
The nature of series [10]: in vivo. To be noted: CD-1, mouse, iv, 1 mg/kg.
Series [11] in a line: in vivo. Conditions: Sprague-Dawley, rat, iv, 1 mg/kg.
A short description of series [12]: in vivo. To be noted: CD-1, mouse, iv, 1 mg/kg. The source holds these as a separate data set.
Series [13] is described as follows: in vivo. Conditions: Sprague-Dawley, rat, iv, 1 mg/kg. The source holds these as a separate data set.
The nature of series [14]: in vitro. To be noted: human, Caco-2.
The nature of series [15]: in vitro. To be noted: mouse, hepatocytes.
Series [16] in a line: AUC (0 to t) in CD-1 mouse at 5 mg/kg, po measured after 24 hrs. The series is classed as ADME, organism-based. Conditions: in vivo.
Series [17] in a line: AUC (0 to t) in Sprague-Dawley rat at 5 mg/kg, po measured after 24 hrs. The series is classed as ADME, organism-based. Conditions: in vivo.
Series [18] can be described thus: Drug concentration in mouse plasma assessed as free fraction administered for 21 days and measured after 8 hrs post dose. It counts as ADME. Conditions: 504 h, time 21 day.
Series [19] is described as follows: in vivo. Conditions: CD-1, mouse, po, 5 mg/kg.
A short description of series [20]: in vivo. To be noted: CD-1, mouse, po, 5 mg/kg. The source holds these as a separate data set.
A short description of series [21]: in vivo. To be noted: CD-1, mouse, po, 5 mg/kg. This is another data set of the same source.
Series [22] is described as follows: in vivo. To be noted: Sprague-Dawley, rat, po, 5 mg/kg.
The nature of series [23]: in vivo. To be noted: Sprague-Dawley, rat, po, 5 mg/kg. This is another data set of the same source.
Series [24] can be described thus: in vivo. To be noted: Sprague-Dawley, rat, po, 5 mg/kg. The source holds these as a separate data set.
Series [25] can be described thus: Cmax in CD-1 mouse at 30 mg/kg, po measured after 24 hrs. It counts as ADME, organism-based. Conditions: in vivo.
The nature of series [26]: AUC (0 to t) in CD-1 mouse at 30 mg/kg, po measured after 24 hrs. It counts as ADME, organism-based. Conditions: in vivo.
A short description of series [27]: Tmax in CD-1 mouse at 30 mg/kg, po measured after 24 hrs. It counts as ADME, organism-based. To be noted: in vivo.
Series [28] is described as follows: Oral bioavailability in CD-1 mouse at 30 mg/kg measured after 24 hrs. The series is classed as ADME, organism-based. To be noted: in vivo.
A short description of series [29]: Cmax in Sprague-Dawley rat at 20 mg/kg, po measured after 24 hrs. Conditions: in vivo. It counts as ADME, organism-based.
Series [30] in a line: Tmax in Sprague-Dawley rat at 20 mg/kg, po measured after 24 hrs. The series is classed as ADME, organism-based. Conditions: in vivo.
Series [31] in a line: Oral bioavailability in Sprague-Dawley rat at 20 mg/kg measured after 24 hrs. The series is classed as ADME, organism-based. Conditions: in vivo.

Usually MRT last stands for the average time that molecules of a dose stay in the body. The term Cmax denotes the highest concentration seen after dosing. Usually AUC(0-t) stands for the area under the concentration-time curve up to a stated or last time point. Low readings indicate less exposure, high ones more exposure. As a reminder, the Tmax is the time from dosing to the highest level. What is called bioavailability is the share of a dose that reaches the circulation, judged against a reference dose that is usually intravenous. Higher therefore signals good availability. As usually defined, the clearance is the volume of plasma or blood freed of the substance per unit of time. A higher clearance goes with efficient removal. As usually defined, the Vd is a proportionality between amount in the body and measured concentration, not a real space. A low value points to confinement near the circulation. For orientation: Papp A→B means the apparent permeability from the apical to the basolateral side of a cell layer. Low values mean slow passage, high ones fast passage.

On to `Cc1ccc(O)c(C)c1-n1c(N)c(C(=O)N2CCn3nccc3C2)c2nc(C)c(C)nc21`, for which the MRT last at 24 h in [1] came out at 6.6 min; in series [2] it was 24.6 min. Also, the Cmax in [3] was 902 ng/mL; in [7] it was 1410 ng/mL. The same compound gave an AUC(0-t) at 24 h in series [4] of 330 ng·h/mL. Also, the Tmax in series [5] and in series [8] was 15 min in each case. For the same compound, the bioavailability came out at 29.3% in series [6] and 50.9% in [9]. Also, the clearance at 24 h was 149 mL/min/kg in the series “in vivo [10]” and 46.8 mL/min/kg in the series “in vivo [11]”. The Vd at 24 h in “in vivo [12]” is 0.99 L/kg; in the series “in vivo [13]”, 1.2 L/kg. Moreover, in the series “in vitro [14]”, the apical-to-basolateral permeability (Papp A→B) at 2 h worked out at 1.48 ×10⁻⁶ cm/s. The CLhep predicted in “in vitro [15]” is 85.4 mL/min/kg.
Take `Cc1cc2c(C(N)=O)c(N)n(-c3c(C)ccc(O)c3C)c2nc1C` [LUNRESERTIB]: the MRT last at 24 h in series [1] came out at 23.4 min; in [2] it was 33.6 min. In addition, the AUC(0-t) at 24 h was found to be 539 ng·h/mL in [16] and 1720 ng·h/mL in series [17]. Besides, the “Cp(f)” value in series [18] was 39.3 nM. Also, the clearance at 24 h stood at 85.7 mL/min/kg in “in vivo [10]” and 37.6 mL/min/kg in the series “in vivo [11]”. Further, the Vd at 24 h is 2.3 L/kg in “in vivo [12]” and 1.4 L/kg in “in vivo [13]”. In addition, the Cmax at 24 h is 511 ng/mL in the series “in vivo [19]” and 1360 ng/mL in “in vivo [22]”. The Tmax at 24 h in “in vivo [20]” stood at 24 min; in “in vivo [23]” it was 15 min. The bioavailability at 24 h came to 55.8% in “in vivo [21]” and 78% in “in vivo [24]”. In “in vitro [14]”, this compound showed a Papp A→B at 2 h of 11 ×10⁻⁶ cm/s. In addition, the CLhep predicted in the series “in vitro [15]” was 79.4 mL/min/kg.
For `Cc1ccc(O)c(C)c1-n1c(N)c(C(=O)N2CCn3nccc3C2)c2nc(C3CC3)c(C)nc21`, the results for the MRT last at 24 h in series [1] and in [2] were 10.2 min and 28.2 min, respectively. Besides, the Cmax was 1800 ng/mL in series [25] and 1780 ng/mL in series [29]. Further, in series [26], the AUC(0-t) at 24 h amounted to 2310 ng·h/mL. The Tmax was 15 min in series [27] and 40.2 min in series [30]. The results for the bioavailability in [28] and in [31] were 55.8% and 55.9%, respectively. The “Cp(f)” value in series [18] turned out to be 60.7 nM. The clearance at 24 h was 122 mL/min/kg in “in vivo [10]” and 49.1 mL/min/kg in “in vivo [11]”. In addition, the figures for the Vd at 24 h in the series “in vivo [12]” and in “in vivo [13]” were 1.3 L/kg and 1.4 L/kg, respectively. Moreover, the Papp A→B at 2 h in the series “in vitro [14]” was found to be 1 ×10⁻⁶ cm/s. For the same compound, in the series “in vitro [15]”, the CLhep predicted was 83.5 mL/min/kg.
